Residue numbers refer to the chain shown, from its start.
Experiments:
Assay in all cases: Whole-cell binding assay, competition with 125I-GIP1-42
Design in all cases: acylated tirzepatide to the full-length or modified; Flag; expressed in transfected cells
GIPR [1] = molecular target: T1, GIPR (Homo sapiens, UniProt P48546, W90A); conditions: GIPR W90A, CHO-K1
T1 sequence (P48546 22-466 W90A): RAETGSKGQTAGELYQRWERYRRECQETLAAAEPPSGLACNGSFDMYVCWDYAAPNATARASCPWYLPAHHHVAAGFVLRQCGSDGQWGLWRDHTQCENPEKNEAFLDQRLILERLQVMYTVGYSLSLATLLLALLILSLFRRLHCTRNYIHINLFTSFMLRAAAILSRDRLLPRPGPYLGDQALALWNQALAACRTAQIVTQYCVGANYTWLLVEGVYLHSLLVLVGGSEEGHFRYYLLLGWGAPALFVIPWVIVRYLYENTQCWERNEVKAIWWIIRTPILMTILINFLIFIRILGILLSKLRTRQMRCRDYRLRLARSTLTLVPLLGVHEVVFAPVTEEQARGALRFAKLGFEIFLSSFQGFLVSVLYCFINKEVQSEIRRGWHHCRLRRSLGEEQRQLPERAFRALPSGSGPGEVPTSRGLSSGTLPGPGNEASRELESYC
Summary of the method: (§1)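 Transiently transfected CHO-K1 cells expressing WT or mutant GIPR were washed in F-12 with 0.1% BSA or 0.1% casein and 33 mM HEPES, then incubated 2 h at 37 °C. After ice-cold PBS washes, cells were lysed and bound radioactivity counted (CPM).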

GIPR [2] = molecular target: T2, GIPR (Homo sapiens, UniProt P48546, Y36A); conditions: GIPR Y36A, CHO-K1; for IC50: read-out: binding pIC50 (converted)
T2 sequence (P48546 22-466 Y36A): T1 sequence (P48546 22-466 W90A) with Y15A, A69W
Summary of the method: as §1

GIPR [3] = molecular target: T3, GIPR (Homo sapiens, UniProt P48546, R370A); conditions: GIPR R370A, CHO-K1
T3 sequence (P48546 22-466 R370A): T1 sequence (P48546 22-466 W90A) with A69W, R349A
Summary of the method: as §1

GIPR [4] = molecular target: T4, GIPR (Homo sapiens, UniProt P48546, Y141A); conditions: GIPR Y141A, CHO-K1
T4 sequence (P48546 22-466 Y141A): T1 sequence (P48546 22-466 W90A) with A69W, Y120A
Summary of the method: as §1

[5] = read-out: binding pIC50 (converted)

Row | SMILES | binding Span (GIPR [1]) [% WT] | IC50 (GIPR [1]; [5]) [nM] | binding Span (GIPR [2]) [% WT] | IC50 (GIPR [2]) [nM] | binding Span (GIPR [3]) [% WT] | IC50 (GIPR [3]; [5]) [nM] | binding Span (GIPR [4]) [% WT] | IC50 (GIPR [4]; [5]) [nM] | binding pIC50 (GIPR [1]) | binding pIC50 (GIPR [3]) | binding pIC50 (GIPR [4])
1 | CCCCCCCCCCCCCCCC(=O)N[C@@H](CCC(=O)NCCCC[C@H](NC(=O)[C@H](CC(=O)O)NC(=O)[C@H](CO)NC(=O)[C@@H](NC(=O)[C@H](Cc1ccccc1)NC(=O)[C@@H](NC(=O)CNC(=O)[C@H](CCC(N)=O)NC(=O)C(C)(C)NC(=O)[C@@H](N)Cc1c[nH]cn1)[C@@H](C)O)[C@@H](C)O)C(=O)N[C@@H](CO)C(=O)N[C@@H](CCCCN)C(=O)N[C@@H](Cc1ccc(O)cc1)C(=O)N[C@@H](CC(C)C)C(=O)N[C@@H](CC(=O)O)C(=O)N[C@@H](CCC(=O)O)C(=O)N[C@@H](CCCNC(=N)N)C(=O)N[C@@H](C)C(=O)N[C@@H](C)C(=O)N[C@@H](CCC(N)=O)C(=O)N[C@@H](CC(=O)O)C(=O)N[C@@H](Cc1ccccc1)C(=O)N[C@H](C(=O)N[C@@H](CCC(N)=O)C(=O)N[C@@H](Cc1c[nH]c2ccccc12)C(=O)N[C@@H](CC(C)C)C(=O)N[C@@H](CC(C)C)C(=O)N[C@@H](CC(=O)O)C(=O)NCC(=O)NCC(=O)N1CCC[C@H]1C(=O)N[C@@H](CO)C(=O)N[C@@H](CO)C(=O)NCC(=O)N[C@@H](C)C(=O)N1CCC[C@H]1C(=O)N1CCC[C@H]1C(=O)N1CCC[C@H]1C(=O)N[C@@H](CO)C(N)=O)C(C)C)C(=O)O [Peptide 20] | 3.87 ± 1.12 | 2.69 | 48.19 ± 2.73 | 16.2 | 22.84 ± 2.01 | 5.62 | 14.88 ± 1.95 | 2.4 |  |  | 
2 | CC[C@H](C)[C@H](NC(=O)[C@H](CC(C)C)NC(=O)[C@H](Cc1c[nH]c2ccccc12)NC(=O)[C@H](CCC(N)=O)NC(=O)[C@@H](NC(=O)[C@H](Cc1ccccc1)NC(=O)[C@H](C)NC(=O)[C@H](CCCCNC(=O)COCCOCCNC(=O)COCCOCCNC(=O)CC[C@H](NC(=O)CCCCCCCCCCCCCCCCCCC(=O)O)C(=O)O)NC(=O)[C@H](CCC(N)=O)NC(=O)[C@H](C)NC(=O)[C@@H](NC(=O)[C@H](CCCCN)NC(=O)[C@H](CC(=O)O)NC(=O)[C@H](CC(C)C)NC(=O)C(C)(C)NC(=O)[C@@H](NC(=O)[C@H](CO)NC(=O)[C@H](Cc1ccc(O)cc1)NC(=O)[C@H](CC(=O)O)NC(=O)[C@H](CO)NC(=O)[C@@H](NC(=O)[C@H](Cc1ccccc1)NC(=O)[C@@H](NC(=O)CNC(=O)[C@H](CCC(=O)O)NC(=O)C(C)(C)NC(=O)[C@@H](N)Cc1ccc(O)cc1)[C@@H](C)O)[C@@H](C)O)[C@@H](C)CC)[C@@H](C)CC)C(C)C)C(=O)N[C@@H](C)C(=O)NCC(=O)NCC(=O)N1CCC[C@H]1C(=O)N[C@@H](CO)C(=O)N[C@@H](CO)C(=O)NCC(=O)N[C@@H](C)C(=O)N1CCC[C@H]1C(=O)N1CCC[C@H]1C(=O)N1CCC[C@H]1C(=O)N[C@@H](CO)C(N)=O [Tirzepatide] |  |  | 40.56 ± 12.64 | 275 | 10.40 ± 2.67 |  |  |  | N.B. | N.B. | N.B.
